Data: patent US20060239927A1, “Drug for airway administration” (Kyowa Hakko Kogyo Co.,, priority 2003, published 2006)

Key:
Type in all cases: in vivo
[1] = test system: antigen-induced neutrophil infiltration; assay: Antigen-induced neutrophil infiltration, intrabronchial administration (BALF cell count); conditions: BN rats; for Number of neutrophils: BAL 24 hours after antigenic exposure, mean ± standard error; for inhibitory effect to infiltration of neutrophils induced by antigen (in words): 30 to 100 μg/rat
Experimental: (§1) The test was conducted in accordance with a known method [Pulmonary Pharmacology, volume 8, pages 83-89 (1995)].
(§2) Male BN rats of six weeks age (Nippon Charles Liver) were used for the test. Five to six rats were put in each plastic cage in a breeding room where the room temperature was 19 to 25° C., humidity was 30 to 70% and a daily illumination was 12 hours (from 7 a.m. to 7 p.m.), and breeding was conducted where commercially available solid feed and water were freely taken by the rats.
(§3) A suspension (1 mL) of 1 mg of ovalbumin (OVA; manufactured by Sigma) and 200 mg of aluminum hydroxide (manufactured by Wako Pure Chemical) in 1 mL of a physiological saline (manufactured by Otsuka Pharmaceutical) was subcutaneously administered to each rat, and then 0.5 mL of a suspension of killed Virdetella pertussis (2×10^10 cells/mL physiological saline solution; manufactured by Kaken Pharmaceutical) was intraperitoneally administered to conduct active sensitization. After 14 days from the active sensitization, the rats were placed in a plastic chamber (30×50×30 cm) and subjected to an antigenic exposure by nebulizing of an 1 weight/volume % solution of OVA in a physiological saline for 10 minutes. For the nebulizing, an ultrasonic nebulizer (manufactured by Omron) was used.
(§4) By the same manner as in Test Example 1, a suspension for administration of Compound (II) was prepared and intrabronchially administered to the sensitized rats.
(§5) Before 30 minutes of the antigenic exposure, the solvent for administration or the suspension for administration of Compound (II) was intrabronchially administered to the sensitized rats at a dose of 100 μL to each of right and left bronchi (200 μL in total). A group where a suspension for administration of Compound (II) was intrabronchially administered to the sensitized rat and an 1 weight/volume % OVA-physiological saline solution was nebulized, was called a Compound (II)-administered group; a group where the solvent for administration was intrabronchially administered to the sensitized rat and an 1 weight/volume % OVA-physiological saline solution was nebulized, was called a solvent-administered group; and a group where the solvent for administration was intrabronchially administered and a physiological saline was nebulized, was called a physiological saline group.
(§6) After 24 hours of the antigenic exposure or of the nebulizing with a physiological saline, a broncho-alveolar lavage (BAL) was conducted. Thus, a rat was anesthetized by an intraperitoneal administration of pentobarbital (manufactured by Dainippon Pharmaceutical) and pulmonary alveoli cavity was washed with a physiological saline via an airway cannula to prepare a broncho-alveolar lavage fluid (BALF).
(§7) The BALF was centrifuged under the condition of 950 rpm (200×g) at 4° C. for 10 minutes, the precipitated cells were suspended in 1 mL of a physiological saline, and total leukocyte numbers were measured by an automatic blood corpuscle counter (manufactured by Nippon Koden). Smeared samples of cells were also prepared using Cytospin III (manufactured by Shandon). After the smeared sample was subjected to a Giemsa staining, 500 cells were observed under an optical microscope, numbers of eosinophils and neutrophils were counted and their ratios were calculated. Number of eosinophils and number of neutrophils were calculated by multiplying the total leukocyte numbers by each ratio of number of eosinophils and number of neutrophils, respectively. Inhibition rate (%) to increases of number of eosinophils and number of neutrophils respectively in BALF was calculated according to the following. [formula]
(§8) A: Numbrer of eosinophils or neutrophils in the solvent-administering group
(§9) B: Numbrer of eosinophils or neutrophils in the Compound (II)-administered group
(§10) C: Numbrer of eosinophils or neutrophils in the physiological saline group

gastric excretion = assay: Inhibitory activity for gastric excretion by intrabronchial administration (Phenol Red method); conditions: SD rats, intrabronchial 30 minutes before P-C solution, 30 to 100 μg/rat
Experimental: Male SD rats (six weeks age; body weight upon purchase was 180 to 200 g; Nippon SLC) were used for the test. The rats were bred in an animal room where room temperature was 23±1° C., humidity was 55±5% and solid feed and drinking water were made freely taken by them.
Suspensions for administration of Compound (II) and RP 73401 were prepared by the same manner as in Test Example 1 and each of them was subjected to an intrabronchial administration.
The rats (body weight used for the experiment: about 200 g) were fasted on the day before the test (before about 24 hours) and were bred only by drinking water. A test for gastric excretion was conducted according to a Phenol Red method [Arch. Int. […]
A 1.5 mL of an 1.5 weight/volume % carboxymethyl cellulose (CMC) solution containing a 0.05 weight/volume % Phenol Red (hereinafter, referred to as P—C solution) was orally administered to the rats where one group comprised six rats. […] The extirpated stomach was incised in 40 mL of a 0.1 mol/L aqueous NaOH solution to recover the P—C solution and the amount of Phenol Red remaining in the stomach was measured. […] The gastric excretion ratio (%) in the agent-administered group or the solvent-administered group was calculated by the following equation (1) while the inhibition rate (%) of the agent to the gastric excretion was calculated from the gastric excretion ratio using the following equation (2). […]

[2] = test system: antigen-induced eosinophil infiltration; assay: Antigen-induced eosinophil infiltration, intrabronchial administration (BALF cell count); conditions: BN rats; for Number of eosinophils: BAL 24 hours after antigenic exposure, mean ± standard error; for inhibitory effect to infiltration of eosinophils induced by antigen (in words): 30 to 100 μg/rat
Experimental: as §1, §2, §3, §4, §5, §6, §7, §8, §9, §10

[3] = Changes in concentration in lung tissues and in plasma upon intra-airway (intrabronchial) administration; conditions: SD rats, 4 mg/kg; for AUC in lung tissues (concentration in lung tissues) / AUC in plasma (concentration in plasma): 0.25-4 hours; for half-life / Kp: male, rat, other: intrabronchial; for half-life: in vivo, read-out: biological half-life (T1/2) (converted); for Kp: lung tissue / plasma, read-out: ratio of concentration in lung tissues to concentration in plasma (AUC)
Experimental: Male rats of SD strain (Nippon Charles Liver, Kanagawa) were bred under the condition of temperature of 23±1° C. and humidity of 55±5%, and those where body weight was 210 to 240 g at seven weeks age were used for the test. Administration of the test compound (Compound (II)) was conducted under a non-fasting condition, and during the test, solid feed (F-2; Funahashi Nojo, Chiba) and tap water were freely taken by them. Case numbers for the test was made n=2 for each stage.
According to a conventional method, the preparations of Compound (II) and RP 73401 being known as a PDE-IV inhibitor [drawing 9] [J. Med. Chem., volume 37, pages 1696-1703 (1994)] were prepared (lactose/Compound (II) or RP 73401=5/1), and each of them was suspended in 0.125 weight/volume % tyloxapol (Alevaire: registered trade mark, Nippon Shoji, Osaka). The resulting suspension was further diluted with 0.125 weight/volume % tyloxapol containing 0.25 weight/volume % of lactose (Pharmatose 325 M; registered trade mark, DMV International, Veghel, The Nethelands) (a solvent for administration), and a suspension for administration of Compound (II) or RP 73401 having an desired concentration was prepared.
Each of Compound (II) and RP 73401 was intrabronchially administered at a dose of 4 mg/kg, respectively. The solvent for administration or the suspension for administration of Compound (II) or RP 73401 was intrabronchially administered to each of right and left bronchi of an ether-anesthetized rat at a dose of 100 μL (200 μL in total) using a disposable oral sound (for mice; Fuchigami Kikai, Kyoto).
At each of stages of 0.25, 0.5, 1, 2 and 4 hours after the intrabronchial administration, abdomen of rat under a light anesthetization with ether was incised, and about 1 mL of blood was collected from a descending vena cava using a heparin-treated syringe (24 G; 1 mL; Thermo, Tokyo). Plasma was separated from the blood using a cooling centrifugal separator and stored by freezing at −20° C. until the measurement. After washing the pulmonary alveoli, the bronchus was resected to collect the lung. The wet weight of the lung was measured and the lung was stored by freezing.
To 100 μL of the plasma collected hereinabove was added a 200 μL of methanol solution of 25 μg/mL 7-[2-(3,5-dichloro-4-pyridyl)-1-oxoethyl]-4-methoxy-spiro-[1,3-benzodioxole-2,1′-cyclohexane] (an internal standard substance), and the mixture was stirred. The mixture was allowed to stand for 10 minutes on ice, followed by centrifuged, and then 200 μL of the supernatant was dried under a nitrogen flow. The resulting solid was dissolved in 200 μL of methanol and centrifuged. The resulting supernatant was subjected to centrifugal filtration using a centrifugal filtration unit ultrafree (C3GV; 0.22 μm; Nippon Millipore, Tokyo). The filtrate (100 μL) was used as a plasma sample and concentrations of Compound (II) and RP 73401 were measured using a mass spectrometer (LC/MS/MS).
In an immunotube (15 mL: Nunc, Glostrup, Denmark), to the lung prepared hereinabove was added the internal standard substance in which the concentration to the lung tissues was previously made 10 μg/g lung tissues, and the mixture was dried under a nitrogen flow. To the resulting solid was added pure water (Milli-Q SP Reagent Water System: Nippon Millipore, Tokyo) in an amount of one-fold to the wet weight followed by subjecting to homogenizing using a homogenator (Ikemoto Rika Kogyo, Tokyo). A two-fold amount of methanol was further added thereto and the mixture was homogenized, allowed to stand for 10 minutes on ice and centrifuged. The supernatant (300 μL) was taken into a microtube and centrifuged once again. The resulting supernatant (100 μL) was used as a lung sample, and concentrations of Compound (II) and RP 73401 were measured by using of a high-performance liquid chromatography (HPLC).

For COc1ccc(C(=O)Cc2c(Cl)cncc2Cl)c2c1OC1(CCCC1)O2 [Compound (II), 7-[2-(3,5-dichloro-4-pyridyl)-1-oxoethyl]-4-methoxy-spiro-[1,3-benzodioxole-2,1′-cyclopentane]], the “Inhibition rate to increase of number of neutrophils in BALF” value ([1]; 30 μg/rat) was 56%, the Number of neutrophils ([1]; 30 μg/rat) was 0.64 ± 0.14 10^6/BALF and the “Inhibition rate to increase of number of neutrophils in BALF” value ([1]; 100 μg/rat) was 80%. For the same compound, the Number of neutrophils ([1]; 100 μg/rat) was 0.43 ± 0.06^# 10^6/BALF, the “inhibitory effect to infiltration of neutrophils induced by antigen (in words)” value [1] was “inhibited” and the “inhibitory effect to gastric excretion (in words)” value (gastric excretion) was “no significant inhibitory effect to gastric excretion was observed”. For the same compound, the “Inhibition rate to increase of number of eosinophils in BALF” value ([2]; 30 μg/rat) was 50%, the Number of eosinophils ([2]; 30 μg/rat) was 0.09 ± 0.03 10^6/BALF and the “Inhibition rate to increase of number of eosinophils in BALF” value ([2]; 100 μg/rat) was 86%. The Number of eosinophils ([2]; 100 μg/rat) was 0.04 ± 0.01^## 10^6/BALF, the “inhibitory effect to infiltration of eosinophils induced by antigen (in words)” value [2] was “inhibited” and the AUC in lung tissues (concentration in lung tissues) [3] was 3640 µg·h/mL. The AUC in plasma (concentration in plasma) [3] was 0.733 µg·h/mL, the half-life [3] was 3.81 h and the Kp [3] was 4970.

With COc1ccc(C(=O)Nc2c(Cl)cncc2Cl)cc1OC1CCCC1 [RP 73401, reference compound] the “inhibitory effect to infiltration of neutrophils induced by antigen (in words)” value [1] was “significant inhibitory activity”, the “inhibitory effect to gastric excretion (in words)” value (gastric excretion) was “a dose-depending inhibitory effect to gastric excretion was observed” and the “inhibitory effect to infiltration of eosinophils induced by antigen (in words)” value [2] was “significant inhibitory activity”. It also gave an AUC in lung tissues (concentration in lung tissues) [3] of 248 µg·h/mL, an AUC in plasma (concentration in plasma) [3] of 0.826 µg·h/mL and a half-life [3] of 0.341 h. It also gave a Kp [3] of 300.
